Data from ChEMBL document CHEMBL5236661, “A new selective inhibitor for IMP-1 metallo-β-lactamase, 3Z,5E-octa-3,5-diene-1,3,4-tricarboxylic acid-3,4-anhydride” (Bioorg Med Chem, 2023).
Converted amounts (≈) assume the structure as drawn. The source made the active and inactive calls. The rule behind the calls is not given here.

What was measured:
[1] = Inhibition of bacterial Metallo-beta-lactamase IMP-1 using nitrocefin as substrate pre-incubated for 15 mins followed by substrate addition by microplate reader; set-up: species or system Bacteria
[2] = test system: Escherichia coli; assay: Antibacterial activity against Escherichia coli KB366 expressing IMP-1 assessed as inhibition of bacterial growth at 100 ug in presence of meropenem incubated overnight by paper disk method; type: functional; details: read-out: IZ
[3] = test system: Escherichia coli; assay: Antibacterial activity against Escherichia coli KB366 expressing IMP-1 assessed as inhibition of bacterial growth at 30 ug in presence of meropenem incubated overnight by paper disk method; type: functional; details: read-out: IZ
[4] = test system: Escherichia coli; assay: Antibacterial activity against Escherichia coli KB366 expressing IMP-1 assessed as inhibition of bacterial growth at 10 ug in presence of meropenem incubated overnight by paper disk method; type: functional; details: read-out: IZ
[5] = test system: Escherichia coli; assay: Antibacterial activity against Escherichia coli KB366 expressing IMP-1 assessed as inhibition of bacterial growth at 3 ug in presence of meropenem incubated overnight by paper disk method; type: functional; details: read-out: IZ
[6] = test system: Escherichia coli; assay: Antibacterial activity against Escherichia coli KB366 expressing IMP-1 assessed as inhibition of bacterial growth at 1 ug in presence of meropenem incubated overnight by paper disk method; type: functional; details: read-out: IZ
[7] = test system: Escherichia coli; assay: Antibacterial activity against Escherichia coli KB366 expressing IMP-1 assessed as inhibition of bacterial growth at 0.3 ug in presence of meropenem incubated overnight by paper disk method; type: functional; details: read-out: IZ
[8] = test system: Escherichia coli; assay: Antibacterial activity against Escherichia coli KB366 expressing IMP-1 assessed as inhibition of bacterial growth at 0.1 ug in presence of meropenem incubated overnight by paper disk method; type: functional; details: for zone of inhibition at 0.1 µg/disc: read-out: IZ
[9] = test system: Escherichia coli; assay: Antibacterial activity against Escherichia coli KB366 expressing IMP-1 assessed as inhibition of bacterial growth at 0.03 ug in presence of meropenem incubated overnight by paper disk method; type: functional; details: for zone of inhibition at 0.03 µg/disc: read-out: IZ
[10] = test system: Escherichia coli; assay: Antibacterial activity against Escherichia coli KB366 expressing IMP-1 assessed as inhibition of bacterial growth at 0.01 ug in presence of meropenem incubated overnight by paper disk method; type: functional; details: dose 0.01 µg
[11] = test system: Escherichia coli; assay: Antibacterial activity against Escherichia coli KB366 expressing IMP-1 assessed as inhibition of bacterial growth at 100 ug in absence of meropenem incubated overnight by paper disk method; type: functional, organism-based; details: dose 100.0 µg
[12] = test system: Escherichia coli; assay: Antibacterial activity against Escherichia coli KB366 expressing IMP-1 assessed as inhibition of bacterial growth at 30 ug in absence of meropenem incubated overnight by paper disk method; type: functional, organism-based; details: dose 30.0 µg
[13] = test system: Escherichia coli; assay: Antibacterial activity against Escherichia coli KB366 expressing IMP-1 assessed as inhibition of bacterial growth at 10 ug in absence of meropenem incubated overnight by paper disk method; type: functional, organism-based; details: dose 10.0 µg
[14] = test system: Escherichia coli; assay: Antibacterial activity against Escherichia coli KB366 expressing IMP-1 assessed as inhibition of bacterial growth at 3 ug in absence of meropenem incubated overnight by paper disk method; type: functional, organism-based; details: dose 3.0 µg
[15] = test system: Escherichia coli; assay: Antibacterial activity against Escherichia coli KB366 expressing IMP-1 assessed as inhibition of bacterial growth at 1 ug in absence of meropenem incubated overnight by paper disk method; type: functional, organism-based; details: dose 1.0 µg
[16] = test system: Escherichia coli; assay: Antibacterial activity against Escherichia coli KB366 expressing IMP-1 assessed as inhibition of bacterial growth at 0.3 ug in absence of meropenem incubated overnight by paper disk method; type: functional, organism-based; details: dose 0.3 µg
[17] = test system: Escherichia coli; assay: Antibacterial activity against Escherichia coli KB366 expressing IMP-1 assessed as inhibition of bacterial growth at 0.1 ug in absence of meropenem incubated overnight by paper disk method; type: functional, organism-based; details: dose 0.1 µg
[18] = test system: Escherichia coli; assay: Antibacterial activity against Escherichia coli KB366 expressing IMP-1 assessed as inhibition of bacterial growth at 0.03 ug in absence of meropenem incubated overnight by paper disk method; type: functional, organism-based; details: dose 0.03 µg
[19] = test system: Escherichia coli; assay: Antibacterial activity against Escherichia coli KB366 expressing IMP-1 assessed as inhibition of bacterial growth at 0.01 ug in absence of meropenem incubated overnight by paper disk method; type: functional, organism-based; details: dose 0.01 µg
[20] = test system: Pseudomonas aeruginosa; assay: Antibacterial activity against Pseudomonas aeruginosa KB367 expressing IMP-1 assessed as inhibition of bacterial growth at 100 ug in presence of meropenem incubated overnight by paper disk method; type: functional; details: read-out: IZ
[21] = test system: Pseudomonas aeruginosa; assay: Antibacterial activity against Pseudomonas aeruginosa KB367 expressing IMP-1 assessed as inhibition of bacterial growth at 30 ug in presence of meropenem incubated overnight by paper disk method; type: functional; details: read-out: IZ
[22] = test system: Pseudomonas aeruginosa; assay: Antibacterial activity against Pseudomonas aeruginosa KB367 expressing IMP-1 assessed as inhibition of bacterial growth at 10 ug in presence of meropenem incubated overnight by paper disk method; type: functional; details: read-out: IZ
[23] = test system: Pseudomonas aeruginosa; assay: Antibacterial activity against Pseudomonas aeruginosa KB367 expressing IMP-1 assessed as inhibition of bacterial growth at 3 ug in presence of meropenem incubated overnight by paper disk method; type: functional; details: for zone of inhibition at 3 µg/disc: read-out: IZ
[24] = test system: Pseudomonas aeruginosa; assay: Antibacterial activity against Pseudomonas aeruginosa KB367 expressing IMP-1 assessed as inhibition of bacterial growth at 1 ug in presence of meropenem incubated overnight by paper disk method; type: functional; details: for zone of inhibition at 1 µg/disc: read-out: IZ
[25] = test system: Pseudomonas aeruginosa; assay: Antibacterial activity against Pseudomonas aeruginosa KB367 expressing IMP-1 assessed as inhibition of bacterial growth at 0.3 ug in presence of meropenem incubated overnight by paper disk method; type: functional, organism-based; details: dose 0.3 µg
[26] = test system: Pseudomonas aeruginosa; assay: Antibacterial activity against Pseudomonas aeruginosa KB367 expressing IMP-1 assessed as inhibition of bacterial growth at 0.1 ug in presence of meropenem incubated overnight by paper disk method; type: functional, organism-based; details: dose 0.1 µg
[27] = test system: Pseudomonas aeruginosa; assay: Antibacterial activity against Pseudomonas aeruginosa KB367 expressing IMP-1 assessed as inhibition of bacterial growth at 0.03 ug in presence of meropenem incubated overnight by paper disk method; type: functional, organism-based; details: dose 0.03 µg
[28] = test system: Pseudomonas aeruginosa; assay: Antibacterial activity against Pseudomonas aeruginosa KB367 expressing IMP-1 assessed as inhibition of bacterial growth at 0.01 ug in presence of meropenem incubated overnight by paper disk method; type: functional, organism-based; details: dose 0.01 µg
[29] = test system: Pseudomonas aeruginosa; assay: Antibacterial activity against Pseudomonas aeruginosa KB367 expressing IMP-1 assessed as inhibition of bacterial growth at 100 ug in absence of meropenem incubated overnight by paper disk method; type: functional, organism-based; details: dose 100.0 µg
[30] = test system: Pseudomonas aeruginosa; assay: Antibacterial activity against Pseudomonas aeruginosa KB367 expressing IMP-1 assessed as inhibition of bacterial growth at 30 ug in absence of meropenem incubated overnight by paper disk method; type: functional, organism-based; details: dose 30.0 µg
[31] = test system: Pseudomonas aeruginosa; assay: Antibacterial activity against Pseudomonas aeruginosa KB367 expressing IMP-1 assessed as inhibition of bacterial growth at 10 ug in absence of meropenem incubated overnight by paper disk method; type: functional, organism-based; details: dose 10.0 µg
[32] = test system: Pseudomonas aeruginosa; assay: Antibacterial activity against Pseudomonas aeruginosa KB367 expressing IMP-1 assessed as inhibition of bacterial growth at 3 ug in absence of meropenem incubated overnight by paper disk method; type: functional, organism-based; details: dose 3.0 µg
[33] = test system: Pseudomonas aeruginosa; assay: Antibacterial activity against Pseudomonas aeruginosa KB367 expressing IMP-1 assessed as inhibition of bacterial growth at 1 ug in absence of meropenem incubated overnight by paper disk method; type: functional, organism-based; details: dose 1.0 µg
[34] = test system: Pseudomonas aeruginosa; assay: Antibacterial activity against Pseudomonas aeruginosa KB367 expressing IMP-1 assessed as inhibition of bacterial growth at 0.3 ug in absence of meropenem incubated overnight by paper disk method; type: functional, organism-based; details: dose 0.3 µg
[35] = test system: Pseudomonas aeruginosa; assay: Antibacterial activity against Pseudomonas aeruginosa KB367 expressing IMP-1 assessed as inhibition of bacterial growth at 0.1 ug in absence of meropenem incubated overnight by paper disk method; type: functional, organism-based; details: dose 0.1 µg
[36] = test system: Pseudomonas aeruginosa; assay: Antibacterial activity against Pseudomonas aeruginosa KB367 expressing IMP-1 assessed as inhibition of bacterial growth at 0.03 ug in absence of meropenem incubated overnight by paper disk method; type: functional, organism-based; details: dose 0.03 µg
[37] = test system: Pseudomonas aeruginosa; assay: Antibacterial activity against Pseudomonas aeruginosa KB367 expressing IMP-1 assessed as inhibition of bacterial growth at 0.01 ug in absence of meropenem incubated overnight by paper disk method; type: functional, organism-based; details: dose 0.01 µg

SMILES	IC50 [1]	zone of inhibition at 100 µg/disc [2]	zone of inhibition at 30 µg/disc [3]	zone of inhibition at 10 µg/disc [4]	zone of inhibition at 3 µg/disc [5]	zone of inhibition at 1 µg/disc [6]	zone of inhibition at 0.3 µg/disc [7]	inhibition zone (IZ) [10]	inhibition zone (IZ) [11]	inhibition zone (IZ) [12]	inhibition zone (IZ) [13]	inhibition zone (IZ) [14]	inhibition zone (IZ) [15]	inhibition zone (IZ) [16]	inhibition zone (IZ) [17]	inhibition zone (IZ) [18]	inhibition zone (IZ) [19]	zone of inhibition at 100 µg/disc [20]	zone of inhibition at 30 µg/disc [21]	zone of inhibition at 10 µg/disc [22]	also measured
CCCC/C(C(=O)[O-])=C(/C(=O)[O-])c1ccc(O)c(O)c1.[Na+].[Na+]	0.56 µg/mL	31 mm	27 mm	22 mm	19 mm	15 mm	12 mm	inactive	inactive	inactive	inactive	inactive	inactive	inactive	inactive	inactive	inactive	20 mm	18 mm	14 mm	zone of inhibition at 0.1 µg/disc [8]: 10 mm; zone of inhibition at 0.03 µg/disc [9]: 9 mm; zone of inhibition at 3 µg/disc [23]: 11 mm; zone of inhibition at 1 µg/disc [24]: 9 mm; inhibition zone (IZ) [25]: inactive; inhibition zone (IZ) [26]: inactive; inhibition zone (IZ) [27]: inactive; inhibition zone (IZ) [28]: inactive; inhibition zone (IZ) [29]: inactive; inhibition zone (IZ) [30]: inactive; inhibition zone (IZ) [31]: inactive; inhibition zone (IZ) [32]: inactive; inhibition zone (IZ) [33]: inactive; inhibition zone (IZ) [34]: inactive; inhibition zone (IZ) [35]: inactive; inhibition zone (IZ) [36]: inactive; inhibition zone (IZ) [37]: inactive
CCCCC(C(=O)N1CCCCC1)=C(C(=O)O)c1ccc(O)c(O)c1	0.55 µg/mL (≈ 1.58 µM)	24 mm	23 mm	21 mm	20 mm	17 mm	15 mm	inactive	inactive	inactive	inactive	inactive	inactive	inactive	inactive	inactive	inactive	16 mm	13 mm	12 mm	zone of inhibition at 0.1 µg/disc [8]: 12 mm; zone of inhibition at 0.03 µg/disc [9]: 10 mm; zone of inhibition at 3 µg/disc [23]: 12 mm; zone of inhibition at 1 µg/disc [24]: 9 mm; inhibition zone (IZ) [25]: inactive; inhibition zone (IZ) [26]: inactive; inhibition zone (IZ) [27]: inactive; inhibition zone (IZ) [28]: inactive; inhibition zone (IZ) [29]: inactive; inhibition zone (IZ) [30]: inactive; inhibition zone (IZ) [31]: inactive; inhibition zone (IZ) [32]: inactive; inhibition zone (IZ) [33]: inactive; inhibition zone (IZ) [34]: inactive; inhibition zone (IZ) [35]: inactive; inhibition zone (IZ) [36]: inactive; inhibition zone (IZ) [37]: inactive
CCCCC1=C(c2ccc(O)c(O)c2)C(=O)OC1=O	1.46 µg/mL (≈ 5.57 µM)	29 mm	25 mm	22 mm	20 mm	17 mm	13 mm	inactive	inactive	inactive	inactive	inactive	inactive	inactive	inactive	inactive	inactive	19 mm	14 mm	9 mm	inhibition zone (IZ) ([8]; dose 0.1 µg): inactive; inhibition zone (IZ) ([9]; dose 0.03 µg): inactive; inhibition zone (IZ) ([23]; dose 3.0 µg): inactive; inhibition zone (IZ) ([24]; dose 1.0 µg): inactive; inhibition zone (IZ) [25]: inactive; inhibition zone (IZ) [26]: inactive; inhibition zone (IZ) [29]: inactive; inhibition zone (IZ) [30]: inactive; inhibition zone (IZ) [31]: inactive; inhibition zone (IZ) [32]: inactive; inhibition zone (IZ) [33]: inactive; inhibition zone (IZ) [34]: inactive; inhibition zone (IZ) [35]: inactive
